Assay results taken from US20220000967A1, “SYNTHETIC PEPTIDES INDUCING IMMUNOGENIC CELL DEATH” (SORBONNE UNIVERSITE, priority 2018, published 2022).

Legend:
[1] = Cell death by Annexin-V-APC/PI flow cytometry; assay type: cell-based, human; settings: CEM, 2h; read-out: cytotoxic concentration that induces around 50% of cell death (CC50)
Method: (§1) CEM, MOLT-4 (T-acute lymphoblastic leukemia, T-ALL), and L5178Y-R (murine lymphoblastic T cell line) were obtained from ATCC. Human and murine PBMCs, human CD4+ and CD8+ T cells, and primary lymphoid organ's cells were obtained from healthy individuals. Cells were maintained in RPMI-1640 medium supplemented with 10% of fetal bovine serum, 2 mM L-glutamine, 100 U/mL penicillin-streptomycin (GIBCO by Life Technologies, Grand Island, N.Y., USA), and incubated at 37° C. in a controlled humidified atmosphere with 5% CO2. Cell count was performed using trypan blue (0.4% Sigma-Aldrich), a Neubauer chamber and an optic microscope (Zeiss Primo Star) as proposed by the ATCC's standard protocols. Flow Cytometry. Cell Death Induction, and Inhibition Annexin-V-allophycocyanin (Ann-V-APC 0.1 μg/ml; BD Pharingen, San Jose Calif., USA), propidium iodide (PI, 0.5 μg/ml Sigma-Aldrich), and tetramethylrhodamine ethyl ester (TMRE, 20 nM, Sigma-Aldrich) were used for phosphatidylserine exposure, cell viability, and mitochondrial transmembrane potential (UΨm) quantification, respectively, in a BD AccuryC6 flow cytometer (BD Biosciences) (total population 10,000 cells). Data were analyzed using FlowJo software. 1×10^6 cells/mL were treated for 2h with PKHB1 (as indicated). For the inhibition assays, calcium chelator, BAPTA (5 mM, CalbioChem, Merck, Billerica Mass., USA); or the pancaspase inhibitor Q-VD-OPh (QVD, 10 μM, BioVision, Milpitas Calif., USA); were added 30 min before PKHB1.

[2] = test system: CEM; test: Cell death by Annexin-V-APC/PI flow cytometry; assay type: cell-based, human; settings: 2h; for cell death percentage: PKHB1 200 μM
Method: as §1

[3] = test system: murine PBMCs and primary cultures of bone marrow, spleen, thymus and lymph nodes; test: Selectivity on non-cancerous murine cells (Ann/PI, MTT); assay type: cell-based; settings: lymph nodes of healthy BALB/c mice
Method: Peripheral blood was collected from 10 healthy volunteers after obtaining written informed consent. This study was approved by the Institutional Ethics Committee at the Universidad Autonoma de Nuevo Leon, College of Biological Sciences. The animal study was approved by the Animal Ethical Committee (CEIBA), Number: 01/2015. All experiments were conducted according to Mexican regulation NOM-062-ZOO-1999. The blood from sacrificed mice was obtained by cardiac puncture, while human blood was collected by venipuncture. Peripheral blood mononuclear cells (PBMCs) isolation was performed by density gradient centrifugation using Ficoll-Hypaque-1119 (Sigma-Aldrich, St Louis, Mo., USA). 4×10^5 white blood cells were washed and seeded. CD4+/CD8+ characterization was done using primary antibodies (CD4; MT310 sc-19641 and CD8; 32-M4 sc-1177, Santa Cruz, Calif., USA).
Spleen, thymus, lymphatic node, and bone marrow cells were obtained from female BALB/c mice post-sacrifice. Spleen cells were obtained through perfusion, thymocytes and lymphatic node cells were obtained by maceration, and bone morrow cells (from one femur and tibia per mouse) were flushed with PBS. Cells washed and counted using trypan blue staining.
CEM, MOLT-4 (T-acute lymphoblastic leukemia, T-ALL), and L5178Y-R (murine lymphoblastic T cell line) were obtained from ATCC. […] Data were analyzed using FlowJo software. […]

[4] = test system: MOLT-4; test: Calreticulin exposure (flow cytometry, confocal microscopy); assay type: cell-based, human; settings: CC50 of PKHB1, 2h
Method: (§2) 1×10^6 cells/mL were plated, treated with PKHB1, and incubated for 2h. Cells were harvested, washed, and stained with Calreticulin-PE (FMC-75, Enzo Life Science, Farmingdale, N.Y., USA) antibody (1:1000) in FACS buffer. After 1h of incubation in darkness at room temperature, cells were washed and resuspended in 100Lp of FACS buffer to be assessed by flow cytometry. For confocal microscopy (OlympusX70), poly-Llysine was added 24h to sterile coverslips and 1×10^6 cells/mL were seeded. PKHB1 was added and incubated for 2h. Then, the cells were stained with Calreticulin-PE antibody (1:500) and Hoechst, incubated 1h, and assessed by confocal microscopy.

[5] = test system: L5178Y-R; test: as above; assay type: cell-based, murine; settings: CC50 of PKHB1, 2h
Method: as §2

[6] = test system: CEM; test: HMGB1 release assay (ELISA); assay type: cell-based, human; settings: PKHB1 CC100, 2h
Method: (§3) Supernatants of untreated and treated (PKHB1 CC50 and CC100 for each cell line) leukemic cells (1×10^6 cells/mL) were used to measure extracellular HMGB1 using the HMGB1 ELISA kit for CEM, MOLT-4 or L5178Y-R cells (BioAssay ELISA kit Human or mouse respectively, US biological Life Science Salem, Mass., USA), following the manufacturer instructions. Absorbance was assessed at 450 nm.

[7] = test system: MOLT-4; test: HMGB1 release assay (ELISA); assay type: cell-based, human
Method: as §3

[8] = test system: CEM; test: ATP release assay (luciferase bioluminescence); assay type: cell-based, human; settings: CC50 and CC100, 2h
Method: (§4) 1×10^6 cells/mL were treated with PKHB1 (CC50 and CC100 for each cell lines) for 2h. Supernatants were used to assess extracellular ATP by a luciferase assay (ENLITEN kit, Promega, Madison Wis., USA) following the manufacturer's instructions. Bioluminescence was assessed in a microplate reader (Synergy HT, BioTek, Software Gen5, Winooski, Vt., USA) at 560 nm.

[9] = test system: MOLT-4; test: ATP release assay (luciferase bioluminescence); assay type: cell-based, human; settings: CC50 and CC100, 2h
Method: as §4

[10] = test system: L5178Y-R tumor; test: Long-term memory assay, rechallenge of mice in remission after PKHB1 treatment; assay type: in vivo, BALB/c mice; settings: mice with complete regression after PKHB1-treatment, rechallenged with 2×10^6 L5178Y-R viable cells
Method: Six-to-eight-week-old BALB/c female mice were maintained in controlled environmental conditions (25° C. and 12h light/dark cycle) and were supplied with rodent food (Science diet) and water ad libitum. • Prophylactic vaccinations: L5178Y-R cells (1.5, 3, 5×10^6) were treated with 300 μM of PKHB1 (CC100) for 2h. Cell death was confirmed using trypan blue staining and flow cytometry. Treated cells were inoculated subcutaneously in 100 μl PBS into the left hind of the leg, whereas 2×10^6 untreated control cells were inoculated into the right hind 7 days later (42). • Tumor establishment and measurement: Tumor was established by the subcutaneous injection of 1×10^6 L5178Y-R cells in 100 μL PBS, into the left hind of the leg. Tumor volume and weight were measured three times per week using a caliper (Digimatic Caliper Mitutoyo Corporation, Japan) and a digital scale (American Weigh Scale-600-BLK, USA). When the tumor reached 100 mm^3 the first PKHB1 injection (200 μg) was applied (day 0). Tumor volume was determined with the formula: tumor volume (mm3)=[…]*A*B*C. Long-term memory assay: Mice in complete remission after PKHB1 treatment, were rechallenged with 2×10^6 cells in 100 μL of PBS, into the opposite limb, and tumor volume was measured like described above.

Compound: CSCC[C@H](NC(=O)[C@@H](NC(=O)[C@@H](NC(=O)[C@H](Cc1ccc(O)cc1)NC(=O)[C@H](Cc1ccccc1)NC(=O)[C@H](CCCNC(=N)N)NC(=O)[C@H](N)CCCCN)C(C)C)C(C)C)C(=O)N[C@@H](Cc1c[nH]c2ccccc12)C(=O)N[C@@H](CCCCN)C(=O)N[C@H](CCCCN)C(=O)O [PKHB1, (D)K-R-F-Y-V-V-M-W-K-(D)K]
- CC50 [1]: 200 µM
- cell death (Ann-V-APC/PI positive cells) ([2]; 100, 200 and 300 μM): concentration-dependent
- cell death percentage ([2]; left alone): 51%±4
- cell death percentage ([2]; pre-incubated 30 min with Ca2+ chelator BAPTA): 18%±11
- cell death percentage ([2]; pre-incubated 30 min with pan-caspase inhibitor Q-VD-OPH): 48%±5
- cell viability of non-cancerous cells [3]: did not significantly affected cell viability
- CRT exposure [4]: significant increase
- CRT exposure [5]: significant increase
- HMGB1 release compared to the untreated control [6]: 6 fold
- HMGB1 release with respect to the control ([7]; PKHB1 CC50, 2h): 8 fold
- HMGB1 release compared to the untreated control ([7]; PKHB1 CC100, 2h): 4 fold
- presence of ATP in supernatants [8]: significantly augmented
- presence of ATP in supernatants [9]: significantly augmented
- rechallenged mice that developed the tumor [10]: ≈ 17%
- survival of re-challenged mice (Kaplan-Meier) [10]: 90%
